ChEMBL document CHEMBL1649160, “ST-246 antiviral efficacy in a nonhuman primate monkeypox model: determination of the minimal effective dose and human dose justification” (Antimicrob Agents Chemother, 2009)

Tests used:
[1] = Cmax in monkeypox virus infected cynomolgus monkey at 10 mg/kg, po administered as single dose under fed condition measured after 1 day; type: ADME, organism-based, Macaca fascicularis; parameters: dose 10 mg/kg, route oral; details: in vivo
[2] = Cmax in monkeypox virus infected cynomolgus monkey at 10 mg/kg, po qd for 14 days administered under fed condition measured after 7 days; type: ADME, organism-based, Macaca fascicularis; parameters: dose 10 mg/kg, route oral; details: in vivo
[3] = Cmax in monkeypox virus infected cynomolgus monkey at 10 mg/kg, po qd for 14 days administered under fed condition measured after 14 days; type: ADME, organism-based, Macaca fascicularis; parameters: dose 10 mg/kg, route oral; details: in vivo
[4] = Cmax in monkeypox virus infected cynomolgus monkey at 20 mg/kg, po administered as single dose under fed condition measured after 1 day; type: ADME, organism-based, Macaca fascicularis; parameters: dose 20 mg/kg, route oral; details: in vivo
[5] = Cmax in monkeypox virus infected cynomolgus monkey at 30 mg/kg, po administered as single dose under fed condition measured after 1 day; type: ADME, organism-based, Macaca fascicularis; parameters: dose 30 mg/kg, route oral; details: in vivo
[6] = Cmax in monkeypox virus infected cynomolgus monkey at 30 mg/kg, po qd for 14 days administered under fed condition measured after 7 days; type: ADME, organism-based, Macaca fascicularis; parameters: dose 30 mg/kg, route oral; details: in vivo
[7] = Cmax in monkeypox virus infected cynomolgus monkey at 30 mg/kg, po qd for 14 days administered under fed condition measured after 14 days; type: ADME, organism-based, Macaca fascicularis; parameters: dose 30 mg/kg, route oral; details: in vivo
[8] = AUC (0 to 24 hrs) in monkeypox virus infected cynomolgus monkey at 10 mg/kg, po administered as single dose under fed condition measured after 1 day; type: ADME, organism-based, Macaca fascicularis; parameters: time < 24 hr, dose 10 mg/kg, route oral; details: plasma
[9] = AUC (0 to 24 hrs) in monkeypox virus infected cynomolgus monkey at 10 mg/kg, po qd for 14 days administered under fed condition measured after 7 days; type: ADME, organism-based, Macaca fascicularis; parameters: time < 24 hr, dose 10 mg/kg, route oral; details: plasma
[10] = AUC (0 to 24 hrs) in monkeypox virus infected cynomolgus monkey at 10 mg/kg, po qd for 14 days administered under fed condition measured after 14 days; type: ADME, organism-based, Macaca fascicularis; parameters: time < 24 hr, dose 10 mg/kg, route oral; details: plasma
[11] = AUC (0 to 24 hrs) in monkeypox virus infected cynomolgus monkey at 20 mg/kg, po administered as single dose under fed condition measured after 1 day; type: ADME, organism-based, Macaca fascicularis; parameters: time < 24 hr, dose 20 mg/kg, route oral; details: plasma
[12] = AUC (0 to 24 hrs) in monkeypox virus infected cynomolgus monkey at 30 mg/kg, po administered as single dose under fed condition measured after 1 day; type: ADME, organism-based, Macaca fascicularis; parameters: time < 24 hr, dose 30 mg/kg, route oral; details: plasma
[13] = AUC (0 to 24 hrs) in monkeypox virus infected cynomolgus monkey at 30 mg/kg, po qd for 14 days administered under fed condition measured after 7 days; type: ADME, organism-based, Macaca fascicularis; parameters: time < 24 hr, dose 30 mg/kg, route oral; details: plasma
[14] = AUC (0 to 24 hrs) in monkeypox virus infected cynomolgus monkey at 30 mg/kg, po qd for 14 days administered under fed condition measured after 14 days; type: ADME, organism-based, Macaca fascicularis; parameters: time < 24 hr, dose 30 mg/kg, route oral; details: plasma
[15] = Cmax in human at 4.2 mg/kg, po administered as single dose under fed condition measured after 1 day; type: ADME, organism-based; parameters: dose 4.2 mg/kg, route oral; details: in vivo
[16] = Cmax in human at 4.2 mg/kg, po qd for 6 days administered under fed condition measured after 6 days; type: ADME, organism-based; parameters: dose 4.2 mg/kg, route oral; details: in vivo
[17] = Cmax in human at 4.2 mg/kg, po qd for 21 days administered under fed condition measured after 21 days; type: ADME, organism-based; parameters: dose 4.2 mg/kg, route oral; details: in vivo
[18] = Cmax in human at 6.7 mg/kg, po administered as single dose under fed condition measured after 1 day; type: ADME, organism-based; parameters: dose 6.7 mg/kg, route oral; details: in vivo
[19] = Cmax in human at 6.7 mg/kg, po qd for 6 days administered under fed condition measured after 6 days; type: ADME, organism-based; parameters: dose 6.7 mg/kg, route oral; details: in vivo
[20] = Cmax in human at 6.7 mg/kg, po qd for 21 days administered under fed condition measured after 21 days; type: ADME, organism-based; parameters: dose 6.7 mg/kg, route oral; details: in vivo
[21] = Cmax in human at 13.3 mg/kg, po administered as single dose under fed condition measured after 1 day; type: ADME, organism-based; parameters: dose 13.3 mg/kg, route oral; details: in vivo
[22] = Cmax in human at 13.3 mg/kg, po qd qd for 6 days administered under fed condition measured after 6 days; type: ADME, organism-based; parameters: dose 13.3 mg/kg, route oral; details: in vivo
[23] = Cmax in human at 13.3 mg/kg, po qd for 21 days administered under fed condition measured after 21 days; type: ADME, organism-based; parameters: dose 13.3 mg/kg, route oral; details: in vivo
[24] = AUC (0 to 24 hrs) in human at 4.2 mg/kg, po administered as single dose under fed condition measured after 1 day; type: ADME, organism-based; parameters: time < 24 hr, dose 4.2 mg/kg, route oral; details: plasma
[25] = AUC (0 to 24 hrs) in human at 4.2 mg/kg, po qd for 6 days administered under fed condition measured after 6 days; type: ADME, organism-based; parameters: time < 24 hr, dose 4.2 mg/kg, route oral; details: plasma
[26] = AUC (0 to 24 hrs) in human at 4.2 mg/kg, po qd for 21 days administered under fed condition measured after 21 days; type: ADME, organism-based; parameters: time < 24 hr, dose 4.2 mg/kg, route oral; details: plasma
[27] = AUC (0 to 24 hrs) in human at 6.7 mg/kg, po administered as single dose under fed condition measured after 1 day; type: ADME, organism-based; parameters: time < 24 hr, dose 6.7 mg/kg, route oral; details: plasma
[28] = AUC (0 to 24 hrs) in human at 6.7 mg/kg, po qd for 6 days administered under fed condition measured after 6 days; type: ADME, organism-based; parameters: time < 24 hr, dose 6.7 mg/kg, route oral; details: plasma
[29] = AUC (0 to 24 hrs) in human at 6.7 mg/kg, po qd for 21 days administered under fed condition measured after 21 days; type: ADME, organism-based; parameters: time < 24 hr, dose 6.7 mg/kg, route oral; details: plasma
[30] = AUC (0 to 24 hrs) in human at 13.3 mg/kg, po administered as single dose under fed condition measured after 1 day; type: ADME, organism-based; parameters: time < 24 hr, dose 13.3 mg/kg, route oral; details: plasma
[31] = AUC (0 to 24 hrs) in human at 13.3 mg/kg, po qd for 6 days administered under fed condition measured after 6 days; type: ADME, organism-based; parameters: time < 24 hr, dose 13.3 mg/kg, route oral; details: plasma
[32] = AUC (0 to 24 hrs) in human at 13.3 mg/kg, po qd for 21 days administered under fed condition measured after 21 days; type: ADME, organism-based; parameters: time < 24 hr, dose 13.3 mg/kg, route oral; details: plasma

## O=C(NN1C(=O)[C@@H]2[C@@H]3C=C[C@@H]([C@H]4C[C@@H]34)[C@@H]2C1=O)c1ccc(C(F)(F)F)cc1 [TECOVIRIMAT]
[1]
  Cmax: 1010 ng/mL
[2]
  Cmax: 1020 ng/mL
[3]
  Cmax: 1080 ng/mL
[4]
  Cmax: 1260 ng/mL
[5]
  Cmax: 1150 ng/mL
[6]
  Cmax: 1510 ng/mL
[7]
  Cmax: 1190 ng/mL
[8]
  AUC(0-t) at 24 h: 13700 ng·h/mL
[9]
  AUC at 24 h: 12600 ng·h/mL
[10]
  AUC at 24 h: 13500 ng·h/mL
[11]
  AUC(0-t) at 24 h: 18400 ng·h/mL
[12]
  AUC(0-t) at 24 h: 18100 ng·h/mL
[13]
  AUC at 24 h: 20700 ng·h/mL
[14]
  AUC at 24 h: 15800 ng·h/mL
[15]
  Cmax: 985 ng/mL
[16]
  Cmax: 1210 ng/mL
[17]
  Cmax: 1100 ng/mL
[18]
  Cmax: 1390 ng/mL
[19]
  Cmax: 1300 ng/mL
[20]
  Cmax: 1460 ng/mL
[21]
  Cmax: 2280 ng/mL
[22]
  Cmax: 2340 ng/mL
[23]
  Cmax: 2440 ng/mL
[24]
  AUC(0-t) at 24 h: 9100 ng·h/mL
[25]
  AUC at 24 h: 11900 ng·h/mL
[26]
  AUC at 24 h: 10100 ng·h/mL
[27]
  AUC(0-t) at 24 h: 13100 ng·h/mL
[28]
  AUC at 24 h: 15400 ng·h/mL
[29]
  AUC at 24 h: 16200 ng·h/mL
[30]
  AUC(0-t) at 24 h: 21000 ng·h/mL
[31]
  AUC at 24 h: 23400 ng·h/mL
[32]
  AUC at 24 h: 22700 ng·h/mL
